For experiment [1], the system named is obesity model rats fed with the high-fat feed. Briefly: Weight reducing effect in rats fed high-fat feed, 7 weeks of administration via lavage. It is filed as in vivo, male Spague-Dawlay (SD) Rats. As to conditions: high-fat feed SD rats, 80 mg/kg via lavage once daily for 7 weeks, x ± s, n = 10. From the text: The feed is commercially available. The high-fat feed comprises 75% base feed, 2% cholesterol, 0.5% sodium cholate, 15% lard, and 7.5% egg yolk. 150 male Spague-Dawlay (SD) Rats of clean grade, each aged 4 weeks and weighed 150-180 g, are provided by Shanghai Lingchang Biotechnology Co., Ltd. The rats are fed in separate plastic cages, given free access to water and feed for 7 days to adapt to the environment, and then quarantined. 140 rats of similar weight are selected from the 150 rats, randomly divided into 14 groups, with 10 rats in each group, including experimental groups 1-8, comparative experiment groups 1-4, a model control group and a blank control group. Rats in the blank control group are fed with the base feed, and rats in other groups are fed with the high-fat feed. Rats in the experimental groups 1-8 are respectively administered via lavage with 80 mg/kg of the pharmaceutical compositions prepared in Examples 1-8; rats in the comparative experiment groups 1-4 are respectively administered via lavage with 80 mg/kg of phloridzin, 80 mg/kg of the extract from Curcuma longa L., 80 mg/kg of epigallocatechin gallate and 80 mg/kg of the extract from […] folium; and rats in the model control group and the blank control group are administered via lavage with equivalent amounts of saline. Rats in each group receive administration once daily for 7 continuous weeks. (1) After 7 weeks of administration, the weight and weight gain of rats in each group are observed and recorded; (2) Rats are anesthetized with ether, and fat pads surrounding the genitalia and kidney and the fat of the omentum are separated and weighed. A fat-to-weight ratio is calculated according to the following equation: fat-to-weight ratio (%)=(weight of fat surrounding the genitalia+weight of fat surrounding kidney+weight of fat of the omentum)/body weight×100%; Data processing is performed using SPSS 20.0 software. Differences between the groups are analyzed using a single-factor variance analysis.

The test system of experiment [2] is hyperlipemia model rats fed with the high-fat feed. Briefly: Blood lipid lowering effect in rats fed high-fat feed, serum biochemical parameters by enzymatic method. It is filed as in vivo, male Spague-Dawlay (SD) Rats. As to conditions: high-fat feed SD rats, 80 mg/kg via lavage once daily for 7 weeks, x ± s, n = 10. From the text:
The feed is commercially available. The high-fat feed comprises 75% base feed, 2% cholesterol, 0.5% sodium cholate, 15% lard, and 7.5% egg yolk. 150 male Spague-Dawlay (SD) Rats of clean grade, each aged 4 weeks and weighed 150-180 g, are provided by Shanghai Lingchang Biotechnology Co., Ltd. The rats are fed in separate plastic cages, given free access to water and feed for 7 days to adapt to the environment, and then quarantined.
140 rats of similar weight are selected from the 150 rats, randomly divided into 14 groups, with 10 rats in each group, including experimental groups 1-8, comparative experiment groups 1-4, a model control group and a blank control group. Rats in the blank control group are fed with the base feed, and rats in other groups are fed with the high-fat feed.
Rats in the experimental groups 1-8 are respectively administered via lavage with 80 mg/kg of the pharmaceutical compositions prepared in Examples 1-8; rats in the comparative experiment groups 1-4 are respectively administered via lavage with 80 mg/kg of phloridzin, 80 mg/kg of the extract from Curcuma longa L., 80 mg/kg of epigallocatechin gallate and 80 mg/kg of the extract from sennae folium; and rats in the model control group and the blank control group are administered via lavage with equivalent amounts of saline.
Rats in each group receive administration once daily for 7 continuous weeks.
(3) After 7 weeks of administration, blood are collected from orbital posterior venous plexus of the rats and analyzed with an enzymatic method on a full-automatic biochemical analyzer to quantitatively determine levels of triglycerides (TG), total cholesterol (TC), high density lipoprotein cholesterol (HDL-C), and low density lipoprotein cholesterol (LDL-C) in serum.
Data processing is performed using SPSS 20.0 software. Differences between the groups are analyzed using a single-factor variance analysis.

On to `O=C(CCc1ccc(O)cc1)c1c(O)cc(O)cc1O[C@@H]1O[C@H](CO)[C@@H](O)[C@H](O)[C@H]1O` [Comparative experiment Group 1, phloridzin], for which, in experiment [1], the Body weight gain is given as 161.35 ± 20.01 g and the Fat-to-weight ratio is 5.87 ± 0.72 %. For the same compound, in experiment [2], the HDL-C is on record as 0.72 ± 0.10 mmol/L, the LDL-C worked out at 0.49 ± 0.10 mmol/L, the TC is given as 2.21 ± 0.51 mmol/L and the TG was determined as 1.56 ± 0.39 mmol/L.
For the compound `O=C(O[C@@H]1Cc2c(O)cc(O)cc2O[C@@H]1c1cc(O)c(O)c(O)c1)c1cc(O)c(O)c(O)c1` [Comparative experiment Group 3, epigallocatechin gallate], in experiment [1], the Body weight gain turned out to be 189.76 ± 22.25 g and the Fat-to-weight ratio turned out to be 7.48 ± 0.53%. In experiment [2], this compound came in with an HDL-C of 0.59 ± 0.12 mmol/L, an LDL-C of 0.55 ± 0.12 mmol/L, a TC of 2.55 ± 0.43 mmol/L and a TG of 1.77 ± 0.41 mmol/L.
